Assay results reported in US9920383B2, “Active substances for increasing the stress defense in plants to abiotic stress, and methods of finding them” (Bayer Intellectual Property GMBH, priority 2005, dated 2018).

How the values were obtained:
[1] = system: Zm.18273.1.S1_at regulatory protein-like; assay: Gene expression profiling (maize genome array), drought stress; format: in vivo, maize cv. Lorenzo; details: vs unstressed solvent-dressed control
Experimental: (§1) Maize seeds cv. Lorenzo were dressed as described in example 1 with the compound VIII-3 (=4-cyclopropylaminocarbonyl-N-(2-methoxybenzoyl)benzenesulfonamide) or with solvent. The plants were raised for 10 days in a controlled-environment chamber (conditions: see example 1).
(§2) Thereafter, the plants were exposed to the following stress conditions: • (1) Heat stress: 6 h at 45° C. • (2) Drought stress: 7 days without irrigation, 24° C.
(§3) The control plants of the specific experimental group were kept under the standard conditions described in example 1 (temperature, irrigation).
(§4) After the stress treatment, the leaves of the stressed plants and of the unstressed control plants were harvested, shock-frozen in liquid nitrogen and stored at −80° C. until processed. All experiments were carried out in replications of in each case 2 pots.
(§5) The labeled RNA probes for the DNA chip hybridization were prepared as described in the protocols (Expression Analysis. Technical Manual) from Affymetrix (Affymetrix Inc., 3380 Central Expressway, Santa Clara, Calif., USA). First, total RNA was isolated from in each case 500 mg of the harvested leaves. In each case 10 μg of total RNA were used for the cDNA first- and second-strand synthesis. The cDNA was amplified with T7 polymerase and simultaneously labeled with biotin-UTP. In each case 20 μg of this biotinylated […] were employed for the hybridization of the maize genome array from Affymetrix. This DNA microarray contains DNA sequences whose totality represents 13339 genes. Thereafter, the DNA microarrays were washed in the Affymetrix Fluidics Station, stained with streptavidin/phycoerythrin (Molecular Probes, P/N S-866) and scanned with the appropriate Agilent Laser Scanner (Agilent Gene Array Scanner). The fluorescence data obtained were analyzed using Affymetrix's Microarray Suite 5 software. After the quality assurance had been performed, all DNA chip analyses were stored in a database. To determine relevant expression values (induction factors, repression factors), the absolute expression values of the genes from the respective stress experiments were compared with the values of the respective control experiments (i.e. without abiotic stress and solvent-dressing only), based on the scoring function predetermined by the Affymetrix software. The resulting 4 expression values per gene were averaged by calculating the median value. These median values are shown in the results tables as induction factors. Similarity comparisons of expression profiles of various experiments and cluster analyses were carried out using the “genedata expressionist” software from Genedata (Genedata, Maulbeerstr. 46, CH-4016 Basel, Switzerland).
(§6) The induction patterns derived from table 5 and which are shown directly by the resulting expression values show characteristic inductions by the action of the compound 4-cyclopropylaminocarbonyl-N-(2-methoxybenzoyl)benzenesulfonamide (=VIII-3), the effect on the putative N-carbamyl-L-amino acid amidohydrolase [Zm.11840.1.A1_at] and on the putative serine carboxypeptidase [Zm18994.2.A1-at] being most pronounced. • b) Under dried stress conditions, i.e. the tested maize plants (dressed with 2 mg a.i. 4-cyclopropylaminocarbonyl-N-(2-methoxybenzoyl)benzenesulfonamide/g seeds) were exposed to a temperature of 24° C. for 7 hours 7 days after germination.
(§7) • Condition A: drought stress (7 days, 24° C.) • Condition B: Seeds dressed with 4-cyclopropylaminocarbonyl-N-(2-methoxybenzoyl)benzenesulfonamide (VIII-3)/NO drought stress • Condition C: Seeds dressed with 4-cyclopropylaminocarbonyl-N-(2-methoxybenzoyl)benzenesulfonamide (VIII-3)+drought stress (7 days, 24° C.).

[2] = system: Zm.818.2.A1_at expressed protein; assay: as above; format: in vivo, maize cv. Lorenzo; details: vs unstressed solvent-dressed control
Experimental: as §1, §2, §3, §4, §5, §6, §7

[3] = system: Zm.485.1.A1_at non-symbiotic hemoglobin (HBT) (ZEAMP GLB1); assay: as above; format: in vivo, maize cv. Lorenzo; details: vs unstressed solvent-dressed control
Experimental: as §1, §2, §3, §4, §5, §6, §7

[4] = system: Zm.18682.1.A1_at unknown protein; assay: as above; format: in vivo, maize cv. Lorenzo; details: vs unstressed solvent-dressed control
Experimental: as §1, §2, §3, §4, §5, §6, §7

[5] = system: Zm.13229.1.S1_at NBS-LRR type disease resistance protein O2 (fragment); assay: as above; format: in vivo, maize cv. Lorenzo; details: vs unstressed solvent-dressed control
Experimental: as §1, §2, §3, §4, §5, §6, §7

[6] = system: Zm.818.1.A1_at universal stress protein; assay: as above; format: in vivo, maize cv. Lorenzo; details: vs unstressed solvent-dressed control
Experimental: as §1, §2, §3, §4, §5, §6, §7

[7] = system: Zm.12035.1.A1_at similar to AT3G10120; assay: as above; format: in vivo, maize cv. Lorenzo; details: vs unstressed solvent-dressed control
Experimental: as §1, §2, §3, §4, §5, §6, §7

[8] = system: Zm.3633.4.A1_at wound induced protein (fragment); assay: as above; format: in vivo, maize cv. Lorenzo; details: vs unstressed solvent-dressed control
Experimental: as §1, §2, §3, §4, §5, §6, §7

[9] = system: Zm.10097.1.A1_at expressed protein; assay: as above; format: in vivo, maize cv. Lorenzo; details: vs unstressed solvent-dressed control
Experimental: as §1, §2, §3, §4, §5, §6, §7

maize plants [10] = assay: Heat stress experiment with maize plants, seed dressing with active substance; format: in vivo, maize cv. Lorenzo
From the text: Maize seeds cv. Lorenzo were dressed as in example 1 with the compound 4-cyclopropylaminocarbonyl-N-(2-methoxybenzoyl)benzenesulfonamide (=VIII-3) or treated only with solvent without active substance. The seedlings were raised for 10 days in the controlled-environment chamber under defined conditions, likewise as described in example 1.2×10 pots with maize plants were used for the heat stress experiment. The control group consisted of undressed plants (solvent), the test group of plants which had been dressed with active substance. To apply the heat stress conditions, both plant groups were placed for 2 days into a controlled-environment cabinet at 45′C, white light, long day (16 hours fight, 8 hours dark) and 70% atmospheric humidity. To avoid desiccation as the result of the high temperature, the plants were irrigated once per day from below by raising the water level in a tray. After the heat stress, it was observed that—especially in the control group—the shoots of many plants had collapsed and that the leaves were lying flat on the ground.
The experiment was valued quantitatively, taking into consideration the following criteria.
After the heat treatment, the plants which had collapsed were counted and the result per pot was assessed:
Thereafter, all plants were grown on for 2 weeks under standard conditions. Then, the length increment of the individual plants was measured, and the survival rate of the plants per pot was determined: […]

maize plants [11] = assay: Chill stress experiment (field) with maize plants, seed dressing; format: in vivo, maize (dent com); details: for Chill damage [%]: number of plants with chill damage > 20% of the total number of plants in the test plot
Experimental: One control plant contains untreated seed. Approximately 8 days after the seed emerged, the seedlings were in the one-leaf stage and were exposed for 5 days to the following temperature conditions:
After this chill period, the test plots were scored. For this purpose, all plants were assessed individually, and plants with at least 20% chill symptoms based on the total leaf area (burns and/or chloroses) were considered to be damaged.

[12] = seeds dressed with VIII-3 (2 mg a.i./g seeds), NO drought stress
[13] = seeds dressed with VIII-3 + drought stress (7 days, 24° C.)
[14] = seeds dressed, after heat stress

With `COc1ccccc1C(=O)NS(=O)(=O)c1ccc(C(=O)NC2CC2)cc1` [VIII-3, 4-cyclopropylaminocarbonyl-N-(2-methoxybenzoyl)benzenesulfonamide] the “induction factor Zm.18273.1.S1_at, Condition B” value [1, 12] was 0.95, the “induction factor Zm.18273.1.S1_at, Condition C” value [1, 13] was 2.91 and the “induction factor Zm.818.2.A1_at, Condition B” value [2, 12] was 1.10. For the same molecule, the “induction factor Zm.818.2.A1_at, Condition C” value [2, 13] was 5.40, the “induction factor Zm.485.1.A1_at, Condition B” value [3, 12] was 1.00 and the “induction factor Zm.485.1.A1_at, Condition C” value [3, 13] was 5.49. The “induction factor Zm.18682.1.A1_at, Condition B” value [4, 12] was 1.12, the “induction factor Zm.18682.1.A1_at, Condition C” value [4, 13] was 4.19 and the “induction factor Zm.13229.1.S1_at, Condition B” value [5, 12] was 1.02. The “induction factor Zm.13229.1.S1_at, Condition C” value [5, 13] was 3.39, the “induction factor Zm.818.1.A1_at, Condition B” value [6, 12] was 1.12 and the “induction factor Zm.818.1.A1_at, Condition C” value [6, 13] was 8.47. For the same molecule, the “induction factor Zm.12035.1.A1_at, Condition B” value [7, 12] was 0.90, the “induction factor Zm.12035.1.A1_at, Condition C” value [7, 13] was 3.66 and the “induction factor Zm.3633.4.A1_at, Condition B” value [8, 12] was 0.74. The “induction factor Zm.3633.4.A1_at, Condition C” value [8, 13] was 3.03, the “induction factor Zm.10097.1.A1_at, Condition B” value [9, 12] was 1.27 and the “induction factor Zm.10097.1.A1_at, Condition C” value [9, 13] was 3.29. For the same molecule, the “Interim score (collapsed plants)” value (maize plants [10]; +S/+H: seeds dressed, heat stress 2 days 45° C, one symbol per pot (10 pots)) was “◯◯◯◯◯◯◯◯◯◯”, the “"standing" of the plants after heat stress” value (maize plants [10]; [14]) was “considerably better” and the “survival rate compared with the control group” value (maize plants [10]; [14]) was “significantly higher”. For the same molecule, the “Chill damage [%]” value (maize plants [11]; dressed with 0.003 mg per seed) was 12%, the “Chill damage [%]” value (maize plants [11]; dressed with 0.03 mg per seed) was 12% and the “chill damage compared with control plot” value (maize plants [11]; test plots with dressing with active substance) was “significantly reduced”. For the same molecule, the “plants showing damage symptoms” value (maize plants [11]; test plots with dressing with active substance (both quantities)) was “approximately 12%”.
